Assay results: article PMC5803267, “A small molecule inhibitor of Rheb selectively targets mTORC1 signaling” (Nature Communications, 2018)

Key:
[1] = biological target: T1, Rheb-dependent mTORC1 kinase activity (Homo sapiens, UniProt Q15382); test: Rheb-dependent mTORC1 in vitro kinase assay (Rheb-IVK); format: biochemical; conditions: for inhibition of mTORC1 activity in the Rheb-IVK: result in words
T1 construct: using full-length Rheb and mTORC1 purified from mammalian cells via a Flag-Raptor handle; made in house; host or cells: HA-GST-Rheb: Freestyle 293-F cells transfected with pRK5-HA-GST-Rheb; mTORC1: HEK-293E cells stably expressing FLAG-Raptor
T1 sequence (Q15382 1-181 limits assumed): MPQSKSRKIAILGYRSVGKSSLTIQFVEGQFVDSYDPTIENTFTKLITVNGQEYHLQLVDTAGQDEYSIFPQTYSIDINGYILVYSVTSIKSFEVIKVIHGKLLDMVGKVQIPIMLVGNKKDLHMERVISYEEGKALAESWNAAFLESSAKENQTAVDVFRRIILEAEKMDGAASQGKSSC

[2] = tested on: T389pS6K1 (mTORC1) in PC3 cells; test: Chronic treatment of PC3 cells, T389pS6K1 Western blot; format: cell-based, human; conditions: PC3, replete, 24 h; NR1 30 µM, rapamycin 100 nM
Protocol: (§1) MCF-7 cells were serum-starved for 16 h and treated with compound for 90 min before cell lysis and Western blot analysis. For insulin-stimulated cells, 100 nM insulin was added 30 min before cell lysis. For EGF-stimulated cells, 100 ng mL^−1 EGF was added 10 min before cell lysis. c Rap1 activity was detected in lysates loaded in vitro with either GDP or GTPγS and treated with NR1 at the indicated concentrations. This was followed by a subsequent pulldown of GST-RalGDS-RBD. Bound Rap1 was detected by Western blot. d Evaluation of NR1 in a LAM patient-derived cell line (TRI102) under replete and serum-starved conditions. For replete conditions, TRI102 cells were treated for 90 min with compound in DMEM + 10% FBS. For serum-starved conditions, TRI102 cells were serum-starved 16 h and then treated for 90 min with compound prior to cell lysis and Western blot analysis. e HEK293 cells co-transfected with the indicated mTOR constructs and HA-GST-S6K1 were starved of amino acids or treated with NR1. To assess mTORC1 activity, an HA IP was performed and Western blots probed for ^T389pS6K1. f Chronic treatment of PC3 cells with NR1 to evaluate the inhibition of mTORC1 (using ^T389pS6K1) versus mTORC2 (using ^S473pAKT). PC3 cells were treated with compound under replete conditions for 24 h prior to cell lysis and Western blot analysis.
(§2) Accordingly, a hallmark of a selective mTORC1 inhibitor such as NR1 would be the lack of mTORC2 inhibition irrespective of the duration of treatment. PC3 cells are sensitive to mTORC2 inhibition with long-term rapamycin treatment. Indeed, upon treatment with rapamycin for 24 h, both ^T389pS6K1 and ^S473pAKT were lowered, indicating inhibitory effects on both mTORC1 and mTORC2, respectively.
(§3) For Western-based signaling assays, cells were treated for either 90 min or 2–24 h as indicated before lysis, normalization, and Western analysis. Cells were lysed in Triton lysis buffer: 1% Triton X-100, 50 mM HEPES pH 7.4, 100 mM NaCl, 2 mM EDTA, 10 mM β-glycerophosphate, 10 mM Na-pyrophosphate, protease inhibitor.

[3] = tested on: S473pAKT (mTORC2) in PC3 cells; test: Chronic treatment of PC3 cells, S473pAKT Western blot; format: cell-based, human; conditions: PC3, replete, 24 h; NR1 30 µM, rapamycin 100 nM
Protocol: as §1, §2, §3

Row | Structure (SMILES) | inhibition of mTORC1 activity in the Rheb-IVK [1] | T389pS6K1 after 24 h treatment [2] | S473pAKT after 24 h treatment [3] | IC50 ([1]; LanthaScreen TR-FRET format, T46p4E-BP1 antibody, read-out: IC50 in the Rheb-IVK) [nM]
1 | CO[C@H]1C[C@@H]2CC[C@@H](C)[C@@](O)(O2)C(=O)C(=O)N2CCCC[C@H]2C(=O)O[C@H]([C@H](C)C[C@@H]2CC[C@@H](O)[C@H](OC)C2)CC(=O)[C@H](C)/C=C(\C)[C@@H](O)[C@@H](OC)C(=O)[C@H](C)C[C@H](C)/C=C/C=C/C=C/1C [rapamycin, reference compound] | no inhibition | lowered | lowered | 
2 | CCC(=O)N1CCN(c2ccc(-n3c(=O)ccc4cnc5ccc(-c6cnc7ccccc7c6)cc5c43)cc2C(F)(F)F)CC1 [Torin-1] | inhibited mTORC1 activity |  |  | 2
